From paper PMC12280126, “Potent β-lactam-based tyrosyl-DNA phosphodiesterase 1 inhibitors identified by a virtual screen” (Scientific Reports, 2025) come the findings set out here.

Where “and” joins values, the source holds several entries; their conditions need not be identical. Equal values may be shown once. Read-outs that look alike come from different tables or passages of the source.

The target in data set [1] is T1, recombinant TDP1 (Homo sapiens, UniProt Q9NUW8).
T1 construct: incubated with 40 pM full-length recombinant TDP1 or TDP1 (148–608)
T1 sequence (Q9NUW8 whole entry): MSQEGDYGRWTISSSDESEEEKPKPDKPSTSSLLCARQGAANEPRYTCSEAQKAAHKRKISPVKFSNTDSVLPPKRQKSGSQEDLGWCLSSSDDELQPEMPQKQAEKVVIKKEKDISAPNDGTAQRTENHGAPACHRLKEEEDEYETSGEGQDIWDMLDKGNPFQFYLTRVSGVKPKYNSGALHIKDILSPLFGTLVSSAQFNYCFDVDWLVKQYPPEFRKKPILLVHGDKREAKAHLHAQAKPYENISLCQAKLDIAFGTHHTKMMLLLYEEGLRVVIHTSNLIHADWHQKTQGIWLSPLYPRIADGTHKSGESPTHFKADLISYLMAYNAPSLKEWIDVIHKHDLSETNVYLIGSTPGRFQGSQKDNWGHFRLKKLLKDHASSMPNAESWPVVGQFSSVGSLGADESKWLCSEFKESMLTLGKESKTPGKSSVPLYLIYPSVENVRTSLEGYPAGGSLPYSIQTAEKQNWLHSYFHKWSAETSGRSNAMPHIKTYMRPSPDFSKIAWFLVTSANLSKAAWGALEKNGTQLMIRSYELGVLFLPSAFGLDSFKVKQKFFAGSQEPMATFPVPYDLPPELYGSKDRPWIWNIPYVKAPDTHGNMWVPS
As to the kind of experiment: in vitro gel-based fluorescence TDP1 catalytic assay. To be noted: 15 min, room temperature. Format: biochemical. How it is done: We subjected select virtual screen hits to evaluation of TDP1 inhibitory potencies using in vitro gel-based fluorescence TDP1 catalytic assays (Fig. 2). […] To further explore this class of compounds, we purchased from TargetMol a library of approximately 90 β-lactams as 10 mM solutions in DMSO. […] We examined TDP1 inhibitory potencies of the compounds using the in vitro gel-based fluorescence assays as previously described[21]–[24]. Briefly, a 5’-Cy5-labeled DNA substrate (N14Y, 5’-Cy5-[…]-pY-3’, 1 nM) was incubated in TDP1 reaction buffer with recombinant TDP1 or truncated TDP1(148–608) (40 pM) in the absence or presence of inhibitors for 15 min at room temperature. […] The TDP1 inhibition IC50 values were calculated based on gel images of the cleavage product (N14P, 5’-Cy5-[…]-p-3’) (Fig. 3A and Table S2).
(§1) The inhibition of TDP1 and TDP2 were conducted according to gel-based methods as previously described[21]–[24],[45]. Briefly, 1 nM of the DNA substrate (N14Y, 5´Cy5-[…]-pY-3´) was incubated with 40 pM full-length recombinant TDP1 or TDP1 (148–608) in the absence or presence of inhibitors for 15 min at room temperature in TDP1 reaction buffer (50 mM Tris-HCl, pH 7.5, 80 mM KCl, 2 mM EDTA, 1 mM DTT, 40 µg/mL BSA and 0.01% Tween 20). The inhibition of TDP2 was also conducted by using similar conditions. […] The reactions of both TDP1 and TDP2 were stopped by adding an equal volume of gel loading buffer (99.5% (v/v) formamide, 5 mM EDTA). The samples were then subjected to a 20% denaturing PAGE gel followed by gel scanning using a Typhoon FLA 9500 scanner (GE Healthcare). The IC50 values of the TDP1 inhibitors were calculated by comparing the percentage of the cleavage product (N14P, 5´Cy5-[…]-p-3´) produced to that in the DMSO control. The IC50 values of the TDP2 inhibitors were calculated by comparing the percentage of the cleavage product (PN18, 5’-p-[…]-Cy5-3’) produced to that in the DMSO control.

The target of data set [2] is T2, recombinant TDP2 (Homo sapiens, UniProt O95551).
T2 sequence (O95551 1-362): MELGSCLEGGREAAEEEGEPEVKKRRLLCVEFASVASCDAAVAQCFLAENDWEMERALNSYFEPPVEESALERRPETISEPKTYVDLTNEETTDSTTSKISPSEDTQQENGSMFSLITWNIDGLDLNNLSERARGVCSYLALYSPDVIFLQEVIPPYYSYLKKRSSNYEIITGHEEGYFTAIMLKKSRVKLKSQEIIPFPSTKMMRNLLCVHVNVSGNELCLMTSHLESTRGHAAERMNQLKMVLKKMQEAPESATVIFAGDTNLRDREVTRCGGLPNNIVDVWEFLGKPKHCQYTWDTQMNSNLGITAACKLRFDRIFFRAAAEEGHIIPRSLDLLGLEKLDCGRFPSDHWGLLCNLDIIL
As to the kind of experiment: in vitro gel-based fluorescence TDP2 assay (counterscreen). The settings on record: 15 min, RT. Format: biochemical. The procedure:
as §1
Background: Counterscreens check selectivity or assay interference.

The target of data set [3] is T3, TDP1(148–608) (Homo sapiens, UniProt Q9NUW8).
T3 construct: SPR experiments were recorded for the truncated TDP1(148–608) and the β-lactam compound
T3 sequence (Q9NUW8 148-608): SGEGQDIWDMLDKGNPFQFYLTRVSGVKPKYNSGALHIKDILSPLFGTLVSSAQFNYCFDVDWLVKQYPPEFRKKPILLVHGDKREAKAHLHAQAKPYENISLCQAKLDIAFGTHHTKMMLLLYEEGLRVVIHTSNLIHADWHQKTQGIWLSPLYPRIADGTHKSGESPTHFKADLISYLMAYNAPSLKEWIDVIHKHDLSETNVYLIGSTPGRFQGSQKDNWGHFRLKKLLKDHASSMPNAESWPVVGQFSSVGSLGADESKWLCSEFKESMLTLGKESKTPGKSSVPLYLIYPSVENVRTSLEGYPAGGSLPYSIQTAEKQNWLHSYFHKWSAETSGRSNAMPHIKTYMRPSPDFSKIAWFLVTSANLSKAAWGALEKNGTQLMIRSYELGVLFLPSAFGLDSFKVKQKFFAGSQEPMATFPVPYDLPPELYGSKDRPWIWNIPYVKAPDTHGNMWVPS
As to the kind of experiment: Intact mass and PTM-mapping mass spectrometry for covalent modification. The settings on record: enzyme-to-compound ratios 1:125 to 1:1000. The procedure: We also digested the TDP1 following incubation with the compounds.

Data set [4] addresses T3, TDP1(148–608). As to the kind of experiment: gel-based fluorescence assay with truncated TDP1 compared with full-length TDP1. It is filed as biochemical. The procedure: as §1
The target of data set [5] is T3, TDP1(148–608). Kind of data set: Surface plasmon resonance (SPR) binding analysis. The text has this: A central mechanism of action of β-lactam antibiotics involves covalent modification of serine residues in PBPs. However, β-lactams are also known to covalently modify proteins more broadly[35],[42]. Mass spectroscopy has proven to be invaluable in characterizing protein modification by β-lactams[43],[44]. […] We evaluated cephalosporin C (11) in SPR studies. For SPR, we immobilized the TDP1(148–608) on an SPR chip and measured the binding of compounds as a function of concentration.
SPR experiments were recorded for the truncated TDP1(148–608) and the β-lactam compound with Biacore T200 system (GE Healthcare). Using the amine coupling kit (Cytiva), 11,000 RU of TDP1 was covalently immobilized on a CM5 chip (Cytiva) via amine coupling. The β-lactam compounds were prepared in HBS-P buffer (Cytiva). Experiments in high-performance mode was carried out using five injections (30 µL/min) of increasing concentrations of the β-lactam (50 nM – 25 µM) passed over the sensor chip for 180 s, followed by a 1200 s dissociation. Buffer and reference signals were subtracted and binding affinities (Kd) were determined using the Biacore T200 evaluation software (GE Healthcare).

Data set [6] has as its system human colon cancer cell line HCT116. Kind of data set: Cell viability, synergistic effect with camptothecin (CPT). It is filed as cell-based.
Procedure: We undertook further assays to determine whether the β-lactams could act in cells as TDP1 inhibitors.
The synergistic effects of the TDP1 inhibitors with CPT were tested in human colon cancer cell line HCT116 based on cell viability[22],[23]. Cells were first seeded in a 384-well black-clear plate until 30% confluency and then incubated with a serial dilution of CPT at the range of 0-100 nM (0, 12.5, 25, 50, 100 nM) in the present or the absence of desired concentrations of TDP1 inhibitors for 72 h at 37 °C. DMSO was used as control. Viable cell numbers were counted from the brightfield images taken by Biotek Cytation 5.

With `C=CC1=C(C(=O)O)N2C(=O)[C@@H](NC(=O)/C(=N\OCC(=O)O)c3csc(N)n3)[C@H]2SC1` [LH5, Cefixime], the IC50 – broadly, the midpoint of a concentration-inhibition curve – in data set [1] (40 pM recombinant TDP1, 1 nM N14Y DNA substrate, read-out: TDP1 IC50) was 4 µM and < 100 µM; in data set [2] (40 pM recombinant TDP2, 1 nM YN18 DNA substrate, read-out: TDP2 IC50), 69.3 ± 6 µM.

For the molecule `CC(=O)OCC1=C(C(=O)O)N2C(=O)[C@@H](NC(=O)CCC[C@@H](N)C(=O)O)[C@H]2SC1` [compound 11, cephalosporin C], the “covalent modification of TDP1 (intact mass analysis)” value in data set [3] was “not able to detect covalent modification of TDP1”. The “loss of inhibitory potencies with only the C-terminal residues TDP1(148–608) compared with full-length TDP1” value in data set [4] is reported as “more than 50 fold”. The IC50 was 4.43 µM and 4.4 µM in data set [1] (TDP1 IC50, 40 pM recombinant TDP1, 1 nM N14Y DNA substrate); > 100 µM in data set [2] (TDP2 IC50, 40 pM recombinant TDP2, 1 nM YN18 DNA substrate). Moreover, in data set [5], the “binding mode from SPR (compound eluted off the chip without impacting binding capacity)” value is “more likely bound non-covalently”. Besides, the Kd (commonly the constant that tells how readily two partners part at equilibrium) in data set [5] (TDP1(148–608) immobilized on CM5 chip, 50 nM – 25 µM compound) came out at 11.6 µM. The “effect in combination with TOP1 inhibitor CPT on cell viability” value in data set [6] (HCT116, 25 µM, CPT 0-100 nM, 72 h) is “acted synergistically”. The “cytotoxicity on its own” value in data set [6] (without CPT) is recorded as “no cytotoxicity”.
